Our source for the IC50 values is US20240059689A1, “PURINE DERIVATIVES AS ANTICANCER AGENTS” (Tango Therapeutics, Inc., priority 2021, published 2024).

Test [1] concerns the target USP1-UAF1 (Homo sapiens, UniProt O94782). The test can be described thus: Ubiquitin Rhodamine assay of USP1-UAF1 activity. The format is biochemical. How it is done:
Certain compounds of the disclosure were assessed for USP1-UAF1 activity in a Ubiquitin Rhodamine assay as described in Biology Example 1.

For test [2], the system named is MDA-MB-436. The test can be described thus: Viability assay, BRCA1 mutant cell line MDA-MB-436. The format is cell-based. The note with it: Homo sapiens, MDA-MB-436, viability, BRCA1 mutant MDA-MB-436; read-out: MDA-MB-436 rel IC50. An excerpt:
(§1) Table 1 also indicates IC50 values in a viability assay for a non-isogenic pair of BRCA1 mutant (column 5-MDA-MB-436) and BRCA1 WT (column 6—HCC1954) cell lines. These values indicate the effect of treatment with compound on cell survival.

Test [3] relates to HCC1954. The test can be described thus: Viability assay, BRCA1 WT cell line HCC1954. The format is cell-based. The following applies: Homo sapiens, HCC1954, viability, read-out: HCC1954 rel IC50.
Excerpt: as §1

In test [4] the test system is monoubiquitinated PCNA. The test can be described thus: AlphaLISA assay measuring monoubiquitinated PCNA in MDA-MB-436. The format is cell-based. The following applies: Homo sapiens, MDA-MB-436, monoubiquitinated PCNA, read-out: Alpha Lisa IC50. An excerpt: Table 1 also indicates IC50 values for exemplary compounds in an AlphaLISA assay measuring monoubiquitinated PCNA in a BRCA1 mutant cell line (MDA-MB-436; column 7).
Background: Bead proximity is the source of the signal in Alpha formats.

pIC50: −log10 of the molar value.

USP1-UAF1, sequence (O94782 whole entry): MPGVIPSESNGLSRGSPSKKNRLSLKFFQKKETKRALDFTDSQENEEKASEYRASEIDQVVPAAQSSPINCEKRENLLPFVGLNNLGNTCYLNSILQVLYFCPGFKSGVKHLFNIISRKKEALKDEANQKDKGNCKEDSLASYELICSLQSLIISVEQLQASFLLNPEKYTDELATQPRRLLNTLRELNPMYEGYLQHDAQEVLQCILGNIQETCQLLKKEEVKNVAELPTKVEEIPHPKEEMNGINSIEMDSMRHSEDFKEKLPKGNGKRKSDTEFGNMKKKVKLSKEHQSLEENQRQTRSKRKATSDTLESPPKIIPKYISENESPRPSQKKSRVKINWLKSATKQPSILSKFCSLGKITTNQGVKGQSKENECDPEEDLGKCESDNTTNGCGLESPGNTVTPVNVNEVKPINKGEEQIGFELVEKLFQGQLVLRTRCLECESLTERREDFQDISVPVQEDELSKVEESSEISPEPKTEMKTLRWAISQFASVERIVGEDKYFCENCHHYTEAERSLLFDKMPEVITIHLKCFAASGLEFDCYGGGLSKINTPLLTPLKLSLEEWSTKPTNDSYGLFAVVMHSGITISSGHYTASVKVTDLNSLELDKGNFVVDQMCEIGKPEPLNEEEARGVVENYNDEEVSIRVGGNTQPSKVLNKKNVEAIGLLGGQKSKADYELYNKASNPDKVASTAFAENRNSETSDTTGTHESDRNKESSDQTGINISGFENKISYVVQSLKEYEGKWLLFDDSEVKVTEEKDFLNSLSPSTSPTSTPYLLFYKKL
USP1-UAF1, sequence (Q8TAF3 whole entry partner): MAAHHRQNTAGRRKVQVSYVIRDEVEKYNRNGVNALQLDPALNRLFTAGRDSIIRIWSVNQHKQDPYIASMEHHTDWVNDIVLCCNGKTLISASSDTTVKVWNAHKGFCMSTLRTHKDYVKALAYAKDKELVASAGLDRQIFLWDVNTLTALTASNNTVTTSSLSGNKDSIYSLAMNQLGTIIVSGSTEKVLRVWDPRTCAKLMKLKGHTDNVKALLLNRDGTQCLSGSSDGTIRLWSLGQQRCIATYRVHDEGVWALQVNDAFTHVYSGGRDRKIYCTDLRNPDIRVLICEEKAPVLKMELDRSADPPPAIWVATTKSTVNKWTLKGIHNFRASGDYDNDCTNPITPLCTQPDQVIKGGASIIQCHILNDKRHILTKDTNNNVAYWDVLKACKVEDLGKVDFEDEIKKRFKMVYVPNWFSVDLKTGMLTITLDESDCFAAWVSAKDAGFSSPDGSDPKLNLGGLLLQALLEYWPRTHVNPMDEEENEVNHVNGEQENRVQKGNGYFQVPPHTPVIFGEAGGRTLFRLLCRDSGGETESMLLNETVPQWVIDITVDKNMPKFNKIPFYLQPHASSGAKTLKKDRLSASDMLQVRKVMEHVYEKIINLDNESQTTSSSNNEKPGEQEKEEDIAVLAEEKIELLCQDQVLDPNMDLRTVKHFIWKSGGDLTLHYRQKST

Take `C=C(C)c1ccc(F)cc1-c1nc(C)c2c(n1)n(Cc1ccc(-c3nc(Cl)cn3C)cc1)c(=N)n2C` [Example A-44, 9-(4-(4-chloro-1-methyl-1H-imidazol-2-yl)benzyl)-2-(5-fluoro-2-(prop-1-en-2-yl)phenyl)-6,7-dimethyl-7,9-dihydro-8H-purin-8-imine]: the pIC50 in test [1] is 7.00 to 7.52; in test [2], 5.00 to 6.60; in test [3], 5.00 to 6.60; in test [4], 5.00 to 6.60.
On to `CC(C)c1ccccc1-c1ncc2c(n1)n(CC1CCN(c3nc(C(F)(F)F)cn3C)CC1)c(=N)n2C` [Example B-1, 2-(2-isopropylphenyl)-7-methyl-9-((1-(1-methyl-4-(trifluoromethyl)-1H-imidazol-2-yl)piperidin-4-yl)methyl)-7H-purin-8(9H)-imine], for which the negative-log IC50 (pIC50) in test [1] is 5.00 to 7.00; in test [2] it was 6.60 to 7.00; in test [3] it was 5.00 to 6.60; in test [4] it was 6.60 to 7.00.
With `CC(C)c1ccccc1-c1ncc2c(n1)n(Cc1ccc(-c3nc(C(F)(F)F)cn3C)cc1)c(=N)n2C` [Example B-2, 2-(2-isopropylphenyl)-7-methyl-9-(4-(1-methyl-4-(trifluoromethyl)-1H-imidazol-2-yl)benzyl)-7H-purin-8(9H)-imine], the pIC50 in test [1] was over 7.52; in test [2], over 7.00; in test [3] it was at most 5.00; in test [4], over 7.00.
As for `Cn1cc(C(F)(F)F)nc1-c1ccc(Cn2c(=N)n(C)c3cnc(-c4ccccc4)nc32)cc1` [Example B-3, 7-methyl-9-(4-(1-methyl-4-(trifluoromethyl)-1H-imidazol-2-yl)benzyl)-2-phenyl-7,9-dihydro-8H-purin-8-imine], the pIC50 in test [1] was 5.00 to 7.00; in test [2] it was 5.00 to 6.60; in test [3], 5.00 to 6.60; in test [4], 5.00 to 6.60.
For `C=C(C)c1ccccc1-c1ncc2c(n1)n(Cc1ccc(-c3nc(C(F)(F)F)cn3C)cc1)c(=N)n2C` [Example B-4, 7-methyl-9-(4-(1-methyl-4-(trifluoromethyl)-1H-imidazol-2-yl)benzyl)-2-(2-(prop-1-en-2-yl)phenyl)-7,9-dihydro-8H-purin-8-imine], the negative-log IC50 (pIC50) in test [1] was over 7.52; in test [2], over 7.00; in test [3], at most 5.00; in test [4] it was over 7.00.
For the compound `Cn1cc(C(F)(F)F)nc1-c1ccc(Cn2c(=N)n(C)c3cnc(-c4c(Cl)cccc4Cl)nc32)cc1` [Example B-5, 2-(2,6-dichlorophenyl)-7-methyl-9-(4-(1-methyl-4-(trifluoromethyl)-1H-imidazol-2-yl)benzyl)-7,9-dihydro-8H-purin-8-imine], the negative logarithm of the IC50 (pIC50) in test [1] is over 7.52; in test [2], 6.60 to 7.00; in test [3], 5.00 to 6.60; in test [4], 6.60 to 7.00.
On to `Cn1cc(C(F)(F)F)nc1-c1ccc(Cn2c(=N)n(C)c3cnc(-c4ccccc4Cl)nc32)cc1` [Example B-8, 2-(2-chlorophenyl)-7-methyl-9-(4-(1-methyl-4-(trifluoromethyl)-1H-imidazol-2-yl)benzyl)-7,9-dihydro-8H-purin-8-imine], for which the pIC50 in test [1] was 7.00 to 7.52; in test [2], 6.60 to 7.00; in test [3] it was at most 5.00; in test [4], 6.60 to 7.00.
Consider `CC(C)c1c(F)cccc1-c1ncc2c(n1)n(Cc1ccc(-c3nc(C(F)(F)F)cn3C)cc1)c(=N)n2C` [Example B-9, 2-(3-fluoro-2-isopropylphenyl)-7-methyl-9-(4-(1-methyl-4-(trifluoromethyl)-1H-imidazol-2-yl)benzyl)-7,9-dihydro-8H-purin-8-imine], for which the pIC50 in test [1] is over 7.52; in test [2] it was over 7.00; in test [3], 5.00 to 6.60; in test [4] it was over 7.00.
As for `CC(C)c1cc(F)ccc1-c1ncc2c(n1)n(Cc1ccc(-c3nc(C(F)(F)F)cn3C)cc1)c(=N)n2C` [Example B-10, 2-(4-fluoro-2-isopropylphenyl)-7-methyl-9-(4-(1-methyl-4-(trifluoromethyl)-1H-imidazol-2-yl)benzyl)-7,9-dihydro-8H-purin-8-imine], the pIC50 was over 7.52 in test [1], 6.60 to 7.00 in test [2], 5.00 to 6.60 in test [3] and 6.60 to 7.00 in test [4].
Regarding `CC(C)c1ccc(F)cc1-c1ncc2c(n1)n(Cc1ccc(-c3nc(C(F)(F)F)cn3C)cc1)c(=N)n2C` [Example B-11, 2-(5-fluoro-2-isopropylphenyl)-7-methyl-9-(4-(1-methyl-4-(trifluoromethyl)-1H-imidazol-2-yl)benzyl)-7,9-dihydro-8H-purin-8-imine], the pIC50 was over 7.52 in test [1], 6.60 to 7.00 in test [2], 5.00 to 6.60 in test [3] and over 7.00 in test [4].
The matching figures for `Cn1cc(C(F)(F)F)nc1-c1ccc(Cn2c(=N)n(C)c3cnc(-c4ccc(F)cc4OC(F)F)nc32)cc1` [Example T-001, 2-[2-(difluoromethoxy)-4-fluoro-phenyl]-7-methyl-9-[[4-[1-methyl-4-(trifluoromethyl)imidazol-2-yl]phenyl]methyl]purin-8-imine]: 7.00 to 7.52, 5.00 to 6.60, 5.00 to 6.60 and 5.00 to 6.60.
As for `Cc1cccc(-c2ncc3c(n2)n(Cc2ccc(-c4nc(C(F)(F)F)cn4C)cc2)c(=N)n3C)c1C(C)C` [Example T-002, 2-(2-isopropyl-3-methyl-phenyl)-7-methyl-9-[[4-[1-methyl-4-(trifluoromethyl)imidazol-2-yl]phenyl]methyl]purin-8-imine], the pIC50 in test [1] was 7.00 to 7.52; in test [2], 6.60 to 7.00; in test [3] it was 5.00 to 6.60; in test [4], 5.00 to 6.60.
Turning to `CC(C)c1ccccc1-c1ncc2c(n1)n(C1(c3ccc(-c4nc(C(F)(F)F)cn4C)cc3)CC1)c(=N)n2C` [Example T-003, 2-(2-isopropylphenyl)-7-methyl-9-[1-[4-[1-methyl-4-(trifluoromethyl)imidazol-2-yl]phenyl]cyclopropyl]purin-8-imine], the pIC50 is over 7.52 in test [1], over 7.00 in test [2], 5.00 to 6.60 in test [3] and over 7.00 in test [4].
For `COc1cc(C(F)(F)F)nn1-c1ccc(Cn2c(=N)n(C)c3cnc(-c4ccccc4C(F)(F)F)nc32)cc1` [Example T-004], the pIC50 in test [1] is 7.00 to 7.52; in test [2], 5.00 to 6.60; in test [3] it was 5.00 to 6.60; in test [4], 6.60 to 7.00.
On to `COc1nccc(C#N)c1-c1ncc2c(n1)n(Cc1ccc(-c3nc(C(F)(F)F)cn3C)cc1)c(=N)n2C` [Example T-008], for which the pIC50 is 7.00 to 7.52 in test [1], 6.60 to 7.00 in test [2], at most 5.00 in test [3] and 6.60 to 7.00 in test [4].
With `Cn1cc(C(F)(F)F)nc1-c1ccc(Cn2c(=N)n(C)c3cnc(-c4cccnc4C4CC4)nc32)cc1` [Example T-009, 2-(2-cyclopropyl-3-pyridyl)-7-methyl-9-[[4-[1-methyl-4-(trifluoromethyl)imidazol-2-yl]phenyl]methyl]purin-8-imine], the negative-log IC50 (pIC50) in test [1] was 7.00 to 7.52; in test [2] it was 5.00 to 6.60; in test [3], at most 5.00; in test [4] it was 6.60 to 7.00.
The matching figures for `Cn1cc(C(F)(F)F)nc1-c1ccc(Cn2c(=N)n(C)c3cnc(-c4cccc5c4OC(F)(F)O5)nc32)cc1` [Example T-011, 2-(2,2-difluoro-1,3-benzodioxol-4-yl)-7-methyl-9-[[4-[1-methyl-4-(trifluoromethyl)imidazol-2-yl]phenyl]methyl]purin-8-imine]: 7.00 to 7.52, 5.00 to 6.60, 5.00 to 6.60 and 5.00 to 6.60.
In the same order, the values of `COc1ncc(F)cc1-c1ncc2c(n1)n(Cc1ccc(-c3nc(C(F)(F)F)cn3C)cc1)c(=N)n2C` [Example T-013] are 5.00 to 7.00, 5.00 to 6.60, at most 5.00 and 5.00 to 6.60.
The matching figures for `Cc1cccc(C(C)C)c1-c1ncc2c(n1)n(Cc1ccc(-c3nc(C(F)(F)F)cn3C)cc1)c(=N)n2C` [Example T-015, 2-(2-isopropyl-6-methyl-phenyl)-7-methyl-9-[[4-[1-methyl-4-(trifluoromethyl)imidazol-2-yl]phenyl]methyl]purin-8-imine]: over 7.52, 6.60 to 7.00, at most 5.00 and 6.60 to 7.00.
Regarding `COCCn1c(=N)n(Cc2ccc(-c3nc(C(F)(F)F)cn3C)cc2)c2nc(-c3ccccc3C(C)C)ncc21` [Example T-016], the pIC50 in test [1] is over 7.52; in test [2], over 7.00; in test [3] it was at most 5.00; in test [4] it was over 7.00.
Regarding `Cc1ccc(C(C)C)c(-c2ncc3c(n2)n(Cc2ccc(-c4nc(C(F)(F)F)cn4C)cc2)c(=N)n3C)c1` [Example T-018, 2-(2-isopropyl-5-methyl-phenyl)-7-methyl-9-[[4-[1-methyl-4-(trifluoromethyl)imidazol-2-yl]phenyl]methyl]purin-8-imine], the pIC50 in test [1] was 7.00 to 7.52; in test [2], 5.00 to 6.60; in test [3] it was 5.00 to 6.60; in test [4], 5.00 to 6.60.
In the case of `COc1ncnc(C2CC2)c1-c1ncc2c(n1)n(Cc1ccc(-c3nc(C(F)(F)F)cn3C)cc1)c(=N)n2C` [Example T-019, 2-(4-cyclopropyl-6-methoxy-pyrimidin-5-yl)-7-methyl-9-[[4-[1-methyl-4-(trifluoromethyl)imidazol-2-yl]phenyl]methyl]purin-8-imine], the negative-log IC50 (pIC50) was 5.00 to 7.00 in test [1], 6.60 to 7.00 in test [2], at most 5.00 in test [3] and over 7.00 in test [4].

One may read the pIC50 as −log10 of the IC50, conventionally taken in molar units.
